Reference: patent publication US7276050B2, “Trans-scleral drug delivery method and apparatus” (priority 2004, dated 2007)

Assays:
[1] = Trans-scleral diffusion in 2 chamber perfusion apparatus (HPLC readout); type: in vitro ADME, human
From the text: Scleral tissue was obtained from 23 human donor eyes (Georgia Eye Bank, Atlanta) and was stored in moist chambers for 2-6 days post-mortem. The mean age at time of death (±SE) for the donor tissue used in this study was 52.4±4.4 years. Scleral tissue was dissected from the superotemporal quadrant of each eye to minimize associated structures that can modify scleral permeability such as vortex veins, posterior ciliary arteries, and anterior ciliary vessels. Uveal tissue and episclera were carefully removed using a cotton-tip applicator. The sclera was mounted horizontally in a 2 chamber acrylic perfusion apparatus (FIG. 1). The uveal surface was apposed to the lower flow-through hemi-chamber (volume 500 μL) containing balanced salt solution (BSS, Alcon laboratories, Ft. Worth, Tex.). The test solution was applied to the episcleral surface. Since CAI has a 423 Da molecular weight and the molecule is hydrophobic with a solubility of 1-10 μM in water, three different test solutions that contained carboxyamido-triazole were evaluated: CAI in 20% DMSO (80% BSS vol/vol) at a concentration (mean±SE) of 15.2±3.0 μM (solution A), CAI in 10% DMSO (90% BSS) at a concentration of 4.1±0.4 μM (solution B), and CAI in 10% ethanol (90% BSS) at a concentration of 3.3±0.2 μM (solution C).
The BSS in the lower hemi-chamber was perfused at a rate of 0.03 ml/min. The perfusion apparatus was placed on a magnetic stir plate and mixing in the lower hemi-chamber was achieved using a stir bar. The upper hemi-chamber containing the test compound was covered with parafilm and sealed with silicone grease to prevent evaporation. This also provided a flexible seal so that trans-scleral pressure would not be altered. The temperature of the apparatus was maintained at 37° C. by a water jacket with circulating water bath.
A physiologic pressure of 15 mm Hg was applied across the sclera by raising the height of the outflow tube of the receptor (lower-) chamber to 22 cm. A pressure transducer that was connected to the lower hemi-chamber verified the pressure. For all three solutions that contained carboxyamido-triazole 100 μl was applied to the episcleral side and samples of perfusate were collected at the uveal side of the sclera at time zero and at 30-minute intervals for the duration of 8 hours. The scleral permeability to CAI in a 10% ethanol solution was also evaluated over a longer period of 24 hours of which samples were taken hourly. For the 24 hours experiments 500 μl of the test solution was added to the upper hemi-chamber to minimize depletion of the drug on the donor side.
From each sample obtained from the trans-scleral diffusion experiments an aliquot of 100 μl was taken and the concentrations of CAI were monitored by reverse-phase high-performance liquid chromatography (HPLC). Results were calculated on the basis of peak areas. Samples were analyzed by using a Hewlett Packard HP1100 HPLC system equipped with a UV detector, an auto-sampler, a pump, and a HP Kayak workstation that controls the operation of HPLC and analyzes the data. A Zorbak Rx-C8 column (4.6×250 mm) was used for separation and detection was set at 260 nm. The flow rate employed was 1.0 ml/min with mobile phase of 55% acetonitrile and 45% water. The injection volume was 100 μl and retention time of CAI was about 7.8 minutes.
Steady state permeability constants were calculated from the data as: Ktrans=[Rtotal/(t)(A)]×1/[D]
Where Rtotal is the amount of drug in the receiver effluent per collected fraction, and t is the fraction collection time (in seconds). A is the area of exposed sclera (in square centimeters). This value—Rtotal/(t)(A)—is equal to the flux across the tissue. D is the concentration of drug in the donor hemi-chamber. Permeability thus represents the steady state flux normalized by donor concentration. The area of exposed sclera was 0.385 cm2. Mean steady state permeability values (±SE) were calculated from four to eight experiments performed for each compound.

[2] = Transmission electron microscopy of sclera after diffusion experiments; design: species or system human; settings: after diffusion experiments with CAI in all three test solutions
Procedure: At the end of the trans-scleral diffusion experiments with CAI (DMSO 10%, 20%, and ethanol 10%) and 2ME2 (1% DMSO) the scleral tissue was fixed in 2.5% glutaraldehyde in 0.1 M sodium cacodylate buffer and prepared for transmission electron microscopy (TEM). The scleral tissue was bisected and postfixed in 2% osmium tetroxide for 2 hours. Small pieces of the sclera were embedded in low-viscosity epoxy medium, thin sectioned, stained with uranyl acetate and lead citrate, and viewed with a JEOL 100 CX transmission electron microscope. The micrographs were taken at X 2850.

[3] = tested on: hyperoxia-induced ocular neovascularization; experiment: Mouse pup model of hyperoxia-induced ocular neovascularization; type: in vivo
From the text: Testing of CAI in a mouse pup model of hyperoxia-induced ocular neovascularization, in which posterior retinal ischemia mediates of pathological angiogenesis, has confirmed that CAI is a potent inhibitor of ocular angiogenesis in this model.

[4] = cited from earlier work
[5] = mouse pup, hyperoxia-induced ocular neovascularization

NC(=O)c1nnn(Cc2cc(Cl)c(C(=O)c3ccc(Cl)cc3)c(Cl)c2)c1N [CAI, Carboxyamido-triazole]
diffusion across the sclera [1]: diffused across the sclera effectively | time at which semi-steady state flux was observed ([1]; human, 3.3 μM): 13 h | time to reach steady state ([1]; human, 4.1 μM): 6 h | time to reach semi-steady state ([1]; human, 15.2 μM): approximately 5 hours | Papp at 8 h, 15.2 μM ([1]; solution A: 15.2 μM CAI in 20% DMSO (80% BSS), human sclera, 37° C., 15 mm Hg, n=4, read-out: permeability constant (mean±SE)): 2.8 ×10⁻⁶ cm/s | Papp at 8 h, 4.1 μM ([1]; solution B: 4.1 μM CAI in 10% DMSO (90% BSS), human sclera, n=7, read-out: permeability constant (mean±SE)): 5.5 ×10⁻⁶ cm/s | Papp at 24 h, 3.3 μM ([1]; solution C: 3.3 μM CAI in 10% EtOH (90% BSS), 24 hour sampling, human sclera, n=4, read-out: permeability constant (mean±SE)): 4.16 ×10⁻⁶ cm/s | scleral ultrastructure by TEM [2]: normal ultrastructure within the sclera | intracellular bcl-2 (immunohistochemistry) ([3]; ischemic inner plexiform layer, mouse pup model): up regulation of intracellular bcl-2 | formation of neovascular fronds [3, 5]: nearly completely abolished formation of neovascular fronds | regression of preformed neovascular fronds [3, 5]: dramatic and significant regression of preformed neovascular fronds | solubility in water [4]: 1 to 10 µM
